Like-named read-outs stand apart in the source and are kept apart here.

The conditions of data set [1]: broiler chickens; cited from earlier work.
For data set [2] the following is noted: pigs; cited from earlier work.
A short description of data set [3]: Toxicokinetics of ZEN-14G in rats after oral and intravenous administration (plasma LC-MS/MS, non-compartmental analysis). Type of data set: in vivo, Wistar rats. As to conditions: for level detected in plasma after oral administration of ZEN-14G: p.o. ZEN-14G 0.75 mg/kg, Figure 3A; for k el: mean ± SD, n = 12, read-out: λZ (elimination rate constant) (converted); for AUC(0-inf): read-out: AUC0-infinity; for half-life: read-out: Elimination t1/2 (converted); for amount observed in plasma after intravenous administration of ZEN-14G: i.v. ZEN-14G 0.75 mg/kg, Figure 3D. Here is the method:
The validated LC-MS/MS method was eligible for the toxicokinetic characterization of ZEN-14G in rats. The obtained data (above the LOQ) were analyzed via non-compartmental analysis using WinNonlin 6.3 software (Pharsight Co. Mountain View, CA, USA). The area under the plasma concentration–time curve (AUC) was obtained using the trapezoidal rule with extrapolation to infinity. […] The half-life period of ZEN in pigs was much longer than ZEN-14G in rats, which may be attributed to enterohepatic circulation. […] The low absolute bioavailability of ZEN-14G might be due to the deglycosylation of ZEN-14G to ZEN. The CL and VZ are extremely different between oral (p.o.) and intravenous (i.v.) administration. The VZ depends on the total mass absorbed and the plasma concentration. For oral administration, the low plasma concentration of ZEN-14G may because ZEN-14G appeared to be distributed into a very large volume or rapidly biotransformed into other compounds. The low oral bioavailability and low plasma concentration of ZEN-14G led to the […] VZ than that of i.v. administration. […] CL is the volume of blood from which a compound is removed per unit time. In comparison with p.o., much more of ZEN-14G was absorbed in the plasma after intravenous injection (i.v.)—more volume of blood cleared of ZEN-14G per unit time.
ZEN-14G was dissolved in aqueous solution containing 0.5% carboxymethyl cellulose. We selected twelve Wistar rats (half male and half female, with an average weight of 180 g, obtained from Vital River Laboratory Animal Technology Co. Ltd (Beijing, China). The rats were raised for one week for acclimation before the experiment, and the rats went through a 12 h fast before dosing. Six rats were treated with ZEN-14G via oral gavage at a dosage of 0.75 mg/kg body weight followed by blood collection at 0.083, 0.16, 0.25, 0.5, 0.75, 1.0, 1.5, 2, 4, and 6 h post administration while the other six rats were administered with the same amount of ZEN-14G intravenously and the blood samples were collected at the same time points. After a one-week withdrawal period, a crossover design was used for the following experiment where the rats administered orally would receive intravenous administration and vice versa. […] All the animal experiments complied with the National Institutes of Health guide for the care and use of laboratory animals, which has been approved on 20 March 2018 by the ethical committee of China Agricultural University (Beijing, China) (2018-SYXK-0238).
We extracted 100 μL of plasma using 100 μL of acetonitrile followed by centrifugation for 5 min at 14,000× g at 4 °C. This analytical method was established based on the published literature. The supernatant was gathered, evaporated until dry and eventually re-dissolved in 100 μL of 15% acetonitrile. This analytical method was soundly validated in plasma before application.
The separation and identification of ZEN-14G and its metabolites were performed on a Phenomenex column (Kinetex 50 mm × 2.1 mm i.d. 1.7 μm particle size, C18) using an ultra-high-performance liquid chromatograph (Agilent 1260 Infinity) coupled to a triple quadrupole mass spectrometer (Agilent 6495) under negative ESI mode (Agilent Technologies, Palo Alto, CA, USA). The chromatographic separations were achieved through a gradient elution program. Mobile phase A was water containing 0.1% formic acid, and phase B was acetonitrile containing 0.1% formic acid. The gradient elution program for phase B was listed as: 0–1 min, 0%–15%; 1–2 min, 15%–45%; 2–4 min, 45%–90%; 4–5 min, 90%; 5–5.1 min, 90%–15%; and 5.1–6.0 min, 15%. The key parameters for the mass spectrometer were as follows: capillary voltage (3.5 kV); gas temperature (250 °C); gas flow (11 L/min); nebulizer (45 psi); sheath gas temperature (350 °C); and sheath gas flow (12 L/min). Furthermore, the detailed information on precursor ions and the product ions of ZEN-14G and quantifiable products are described in Table S1. […]

For data set [4] the following is noted: female pigs; cited from earlier work.
For data set [5] the following is noted: poultry; cited from earlier work.
The conditions of data set [6]: rats; cited from earlier work.
The subject of another data set is estrogenic receptors. Also noted: method as in PMID 32625539. As to conditions: compared with ZEN; cited from earlier work.
Where [7] appears, read: both sexes, Wistar, rat, in vivo, iv, 0.75 mg/kg body weight.
Where [8] appears, read: both sexes, Wistar, rat, in vivo, po, 0.75 mg/kg body weight.

For `CC1=C[C@H]2O[C@@H]3[C@H](O[C@@H]4O[C@H](CO)[C@@H](O)[C@H](O)[C@H]4O)C[C@](C)([C@@]2(CO)[C@H](O)C1=O)[C@]31CO1` [DON-3G, deoxynivalenol-3-β-D-glucoside], the absolute oral bioavailability in data set [1] was 3.79%; in data set [2], 16.1%.

Turning to `C[C@H]1CCCC(=O)CCC/C=C/c2cc(O)cc(O)c2C(=O)O1` [ZEN, Zearalenone], in data set [3] (after i.v. ZEN-14G 0.75 mg/kg body weight), the “yield of ZEN in plasma relative to that of ZEN-14G” value is given as “approximately 4.5 times”. In addition, the “level detected in plasma after oral administration of ZEN-14G” value in data set [3] is reported as “trace level”. Further, the absolute oral bioavailability result in data set [4] was “around 51.5%”. In addition, the oral bioavailability in data set [5] and in data set [6] was 10% throughout.

The bioavailability is dose-corrected exposure relative to a reference, in per cent. Broadly, the AUC(0-t) is the area under the concentration-time curve up to a stated or last time point. Broadly, the MRT is a mean duration of stay, worked out from the concentration-time curve. The Cmax is the highest concentration seen after dosing. Usually Tmax stands for the time at which the peak concentration occurs. `CC1CCCC(=O)CCC/C=C/c2cc(OC3OC(CO)C(O)C(O)C3O)cc(O)c2C(=O)O1` (stereo not drawn) [ZEN-14G, Zearalenone-14-glucoside]: the visible adverse phenomena result in data set [3] (0.75 mg/kg body weight, any route of administration (p.o., i.v.)) is “No visible adverse phenomena”. For the same compound, in data set [3] (both sexes, Wistar, rat, in vivo, 0.75 mg/kg, AUC oral / AUC intravenous × 100%, 0.75 mg/kg body weight, read-out: F (absolute oral bioavailability)), the bioavailability was ~9%. Also, in data set [3] (setting [7]), the area under the curve AUC(0-t) was 1.79 ± 0.03 ng·h/mL, the k el was 0.000883 s⁻¹, the AUC(0-inf) amounted to 1.8 ± 0.02 ng·h/mL and the half-life is 13.2 ± 1.8 min. For the same compound, the MRT in data set [3] (both sexes, Wistar, rat, in vivo, iv, 0.75 mg/kg, i.v., 0.75 mg/kg body weight, read-out: MRT (mean residence time)) amounted to 12 ± 1.8 min. In addition, in data set [3] (both sexes, Wistar, rat, in vivo, iv, 0.75 mg/kg, i.v., 0.75 mg/kg body weight, read-out: VZ (apparent volume of distribution)), the Vd was 7.25 ± 1.23 L/kg. Also, in data set [3] (both sexes, Wistar, rat, in vivo, iv, 0.75 mg/kg, i.v., 0.75 mg/kg body weight, read-out: VZ (apparent volume of distribution), as printed in text), the Vd came to 87.2 L/kg. Besides, in data set [3] (setting [8]), the AUC(0-t) was 0.11 ± 0.03 ng·h/mL, the peak level (Cmax) was 0.2 ± 0.03 ng/mL, the Tmax turned out to be 4.98 ± 0.6 min and the k el is 0.0002 s⁻¹. In data set [3] (setting [8]), the AUC(0-inf) worked out at 0.16 ± 0.02 ng·h/mL and the half-life is 57.6 ± 4.2 min. Further, the CL/F in data set [3] (both sexes, Wistar, rat, in vivo, po, 0.75 mg/kg body weight, read-out: CL (apparent total body clearance) (converted)) is 75 mL/min/kg. Besides, in data set [3] (i.v., 0.75 mg/kg body weight), the “CL (apparent total body clearance)” value came to 83.7 ± 10.3 mL/min/kg. In addition, the “VZ (apparent volume of distribution)” value in data set [3] (p.o., 0.75 mg/kg body weight) stood at 6.24 ± 0.73 L/kg. In data set [3] (p.o., first time point), the “time point of the peak concentration” value worked out at 5 min. Besides, the estrogenic potency result in the data set with estrogenic receptors is on record as “comparable to that of ZEN”.

For the compound `CC1CCC[C@H](O)CCC/C=C/c2cc(O)cc(O)c2C(=O)O1` (stereo partly drawn) [α-ZEL, α-zearalenol], in data set [3], the “amount observed in plasma after intravenous administration of ZEN-14G” value is on record as “small amount” and the “level detected in plasma after oral administration of ZEN-14G” value is listed as “trace level”.

`CC1CCC[C@H](O)CCC/C=C/c2cc(OC3OC(CO)C(O)C(O)C3O)cc(O)c2C(=O)O1` (stereo partly drawn) [α-ZEL-14G]: in data set [3], the “amount observed in plasma after intravenous administration of ZEN-14G” value was “small amount”.

Values taken from paper PMC6862289, “Metabolic Profile, Bioavailability and Toxicokinetics of Zearalenone-14-Glucoside in Rats after Oral and Intravenous Administration by Liquid Chromatography High-Resolution Mass Spectrometry and Tandem Mass Spectrometry” (International Journal of Molecular Sciences, 2019).
